# Measurements published in patent US20260297542A1, “HERBICIDE RESISTANT PLANTS” (SYNGENTA CROP PROTECTION AG, priority 2023, published 2026).
# Where a chain is given by its changes, count along the chain named.
# What was measured:
# Assay in all cases: E. coli hemG growth inhibition by herbicide, AtPPO1 variant
# Type in all cases: cell-based
# Settings in all cases: read-out: percentage growth inhibition
# AtPPO1 V447I = target: T1, AtPPO1 V447I (Arabidopsis thaliana, UniProt P55826, V447I)
# T1 construct: expressed in transfected cells; host or cells: E. coli BL21(DE3) hemG (pET24a, T7 promoter)
# T1 sequence (P55826 35-537 V447I): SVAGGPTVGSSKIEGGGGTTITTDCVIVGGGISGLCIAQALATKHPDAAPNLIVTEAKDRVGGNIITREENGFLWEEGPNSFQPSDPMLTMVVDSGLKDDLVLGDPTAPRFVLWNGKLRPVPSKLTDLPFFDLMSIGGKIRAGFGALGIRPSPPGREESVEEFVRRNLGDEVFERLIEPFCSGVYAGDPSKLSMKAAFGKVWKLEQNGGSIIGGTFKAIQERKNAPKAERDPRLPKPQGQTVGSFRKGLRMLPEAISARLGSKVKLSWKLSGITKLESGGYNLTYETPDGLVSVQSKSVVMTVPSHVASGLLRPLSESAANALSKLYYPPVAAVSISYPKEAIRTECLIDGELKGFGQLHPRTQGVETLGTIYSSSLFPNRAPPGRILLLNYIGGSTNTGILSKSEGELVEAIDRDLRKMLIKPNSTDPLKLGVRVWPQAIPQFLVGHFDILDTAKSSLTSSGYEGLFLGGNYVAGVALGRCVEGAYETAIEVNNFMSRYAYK
# How it was run: (§1)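 AtPPO1 variants from a site-saturation library, codon-optimised and T7-driven in pET24a, were expressed in E. coli BL21(DE3) lacking hemG (hemG replaced by CmR). Growth in Terrific broth with 0.1 mM IPTG plus 6.25 ppm herbicide 0 or E, 0.78 ppm herbicide B, or DMSO was read as OD600 after 24 h at 37° C; inhibition was calculated against the DMSO culture.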
# AtPPO1 L479N = target: T2, AtPPO1 L479N (Arabidopsis thaliana, UniProt P55826, L479N)
# T2 construct: expressed in transfected cells; host or cells: E. coli BL21(DE3) hemG, pET24a plasmid
# T2 sequence (P55826 35-537 L479N): T1 sequence (P55826 35-537 V447I) with I413V, L445N
# How it was run: as §1
# AtPPO1 P271C = target: T3, AtPPO1 P271C (Arabidopsis thaliana, UniProt P55826, P271C)
# T3 construct: expressed in transfected cells; host or cells: E. coli BL21(DE3) hemG (hemG replaced by CmR), pET24a plasmid
# T3 sequence (P55826 35-537 P271C): T1 sequence (P55826 35-537 V447I) with P237C, I413V
# How it was run: as §1
# AtPPO1 WT = target: T4, AtPPO1 WT (Arabidopsis thaliana, UniProt P55826)
# T4 construct: expressed in transfected cells; host or cells: E. coli BL21(DE3) hemG (hemG replaced by CmR), pET24a plasmid
# T4 sequence (P55826 1-537): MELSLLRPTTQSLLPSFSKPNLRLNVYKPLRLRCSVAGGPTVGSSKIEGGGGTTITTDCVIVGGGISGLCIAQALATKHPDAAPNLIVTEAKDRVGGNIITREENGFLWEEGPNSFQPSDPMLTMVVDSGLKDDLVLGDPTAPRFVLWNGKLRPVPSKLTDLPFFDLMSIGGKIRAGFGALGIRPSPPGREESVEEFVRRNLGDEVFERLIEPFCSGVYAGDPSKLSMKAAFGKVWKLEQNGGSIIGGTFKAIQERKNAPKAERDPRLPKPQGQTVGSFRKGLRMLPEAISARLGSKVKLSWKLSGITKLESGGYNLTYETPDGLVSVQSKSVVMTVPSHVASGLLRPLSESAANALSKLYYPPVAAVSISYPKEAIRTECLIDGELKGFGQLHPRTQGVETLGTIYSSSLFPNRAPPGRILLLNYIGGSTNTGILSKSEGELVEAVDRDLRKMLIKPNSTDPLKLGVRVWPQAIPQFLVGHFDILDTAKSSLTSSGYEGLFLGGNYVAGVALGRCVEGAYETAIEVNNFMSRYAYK
# How it was run: as §1
Compound,inhibition at 0.78 ppm (AtPPO1 V447I) [%],inhibition at 0.78 ppm (AtPPO1 L479N) [%],inhibition at 0.78 ppm (AtPPO1 P271C) [%],inhibition at 0.78 ppm (AtPPO1 WT) [%],inhibition at 6.25 ppm (AtPPO1 V447I) [%],inhibition at 6.25 ppm (AtPPO1 L479N) [%],inhibition at 6.25 ppm (AtPPO1 P271C) [%],inhibition at 6.25 ppm (AtPPO1 WT) [%]
"C#CCN1C(=O)C(F)(F)Oc2cc(F)c(-n3c(=O)n(C)c(=S)n(C)c3=O)cc21 [Herbicide B, trifludimoxazin]",35,23,24,61,,,,
"CCOC(=O)[C@]1(C)CC(c2cc(-n3c(=O)n(C)c(=S)n(C)c3=O)c(F)cc2Cl)=NO1 [Herbicide D, ethyl (5S)-3-[2-chloro-5-(3,5-dimethyl-2,6-dioxo-4-thioxo-1,3,5-triazinan-1-yl)-4-fluoro-phenyl]-5-methyl-4H-isoxazole-5-carboxylate]",,,,,36,3,24,58
"CC(C)N(C)S(=O)(=O)NC(=O)c1cc(-n2c(=O)cc(C(F)(F)F)n(C)c2=O)c(F)cc1Cl [Herbicide E, saflufenacil]",,,,,61,31,66,64
